1 compound from ChEMBL document CHEMBL4665892, “Structural Basis for the Binding Mechanism of Human Serum Albumin Complexed with Cyclic Peptide Dalbavancin” (J Med Chem, 2020) can be followed below.

The data set in a line: Protein binding in human plasma. Conditions: read-out: PPB (converted). It counts as ADME, cell-free.

In the case of `CCCCCCCCCC(=O)N[C@@H](Cc1c[nH]c2ccccc12)C(=O)N[C@H](CC(N)=O)C(=O)N[C@@H](CC(=O)O)C(=O)N[C@@H]1C(=O)NCC(=O)N[C@@H](CCCN)C(=O)N[C@@H](CC(=O)O)C(=O)N[C@H](C)C(=O)N[C@@H](CC(=O)O)C(=O)NCC(=O)N[C@H](CO)C(=O)N[C@@H]([C@H](C)CC(=O)O)C(=O)N[C@@H](CC(=O)c2ccccc2N)C(=O)O[C@@H]1C`, the fraction unbound was 0.15.
